Source: ChEMBL document CHEMBL2440076, “New triarylpyrazoles as broad-spectrum anticancer agents: design, synthesis, and biological evaluation” (Eur J Med Chem, 2013)

How the values were obtained:
MCF7 = assay: Growth inhibition of human MCF7 cells assessed as cell growth at 10 uM after 48 hrs by sulforhodamine B assay; type: functional; conditions: MCF7, 48 h, read-out: Activity
KM12 = assay: Growth inhibition of human KM12 cells after 48 hrs by sulforhodamine B assay; type: functional, cell-based; conditions: KM12, 48 h
NCI-H322M [1] = assay: Growth inhibition of human NCI-H322M cells assessed as cell growth at 10 uM after 48 hrs by sulforhodamine B assay; type: functional; conditions: read-out: Activity
OVCAR-3 = assay: Growth inhibition of human OVCAR3 cells assessed as cell growth at 10 uM after 48 hrs by sulforhodamine B assay; type: functional; conditions: OVCAR-3, 48 h, read-out: Activity
ACHN = assay: Growth inhibition of human ACHN cells after 48 hrs by sulforhodamine B assay; type: functional
MDA-MB-468 = assay: Growth inhibition of human MDA-MB-468 cells after 48 hrs by sulforhodamine B assay; type: functional, cell-based; conditions: MDA-MB-468, 48 h
HT-29 = assay: Growth inhibition of human HT-29 cells assessed as cell growth at 10 uM after 48 hrs by sulforhodamine B assay; type: functional; conditions: HT-29, 48 h, read-out: Activity
UACC-257 = assay: Growth inhibition of human UACC257 cells after 48 hrs by sulforhodamine B assay; type: functional; conditions: UACC-257, 48 h
HCT-116 = assay: Growth inhibition of human HCT116 cells after 48 hrs by sulforhodamine B assay; type: functional; conditions: HCT-116, 48 h
MDA-MB-231 = assay: Growth inhibition of human MDA-MB-231 cells assessed as cell growth at 10 uM after 48 hrs by sulforhodamine B assay; type: functional; conditions: MDA-MB-231, 48 h, read-out: Activity
OVCAR-8 [2] = assay: Growth inhibition of human OVCAR8 cells after 48 hrs by sulforhodamine B assay; type: functional; conditions: OVCAR-8, 48 h
[3] = Growth inhibition of human NCI-ADR-RES cells assessed as cell growth at 10 uM after 48 hrs by sulforhodamine B assay; type: functional; conditions: read-out: Activity
DU-145 [4] = assay: Growth inhibition of human DU145 cells assessed as cell growth at 10 uM after 48 hrs by sulforhodamine B assay; type: functional; conditions: DU-145, 48 h, read-out: Activity
786-0 = assay: Growth inhibition of human 786-0 cells after 48 hrs by sulforhodamine B assay; type: functional; conditions: 786-0, 48 h
SF-539 [5] = assay: Growth inhibition of human SF539 cells assessed as cell growth at 10 uM after 48 hrs by sulforhodamine B assay; type: functional; conditions: SF-539, 48 h, read-out: Activity
SK-MEL-28 = assay: Growth inhibition of human SK-MEL-28 cells assessed as cell growth at 10 uM after 48 hrs by sulforhodamine B assay; type: functional; conditions: SK-MEL-28, 48 h, read-out: Activity
OVCAR-8 [6] = assay: Growth inhibition of human OVCAR8 cells assessed as cell growth at 10 uM after 48 hrs by sulforhodamine B assay; type: functional; conditions: OVCAR-8, 48 h, read-out: Activity
UACC-62 = assay: Growth inhibition of human UACC62 cells after 48 hrs by sulforhodamine B assay; type: functional; conditions: UACC-62, 48 h
SF-539 [7] = assay: Growth inhibition of human SF539 cells after 48 hrs by sulforhodamine B assay; type: functional; conditions: SF-539, 48 h
A549 = assay: Growth inhibition of human A549/ATCC cells after 48 hrs by sulforhodamine B assay; type: functional; conditions: A549, 48 h
HOP-92 = assay: Growth inhibition of human HOP92 cells assessed as cell growth at 10 uM after 48 hrs by sulforhodamine B assay; type: functional; conditions: HOP-92, 48 h, read-out: Activity
SR = assay: Growth inhibition of human SR cells after 48 hrs by sulforhodamine B assay; type: functional
UO-31 = assay: Growth inhibition of human UO31 cells after 48 hrs by sulforhodamine B assay; type: functional; conditions: UO-31, 48 h
OVCAR-5 = assay: Growth inhibition of human OVCAR5 cells assessed as cell growth at 10 uM after 48 hrs by sulforhodamine B assay; type: functional; conditions: OVCAR-5, 48 h, read-out: Activity
SNB-19 = assay: Growth inhibition of human SNB19 cells assessed as cell growth at 10 uM after 48 hrs by sulforhodamine B assay; type: functional; conditions: SNB-19, 48 h, read-out: Activity
DU-145 [8] = assay: Growth inhibition of human DU145 cells after 48 hrs by sulforhodamine B assay; type: functional; conditions: DU-145, 48 h
K562 = assay: Growth inhibition of human K562 cells assessed as cell growth at 10 uM after 48 hrs by sulforhodamine B assay; type: functional; conditions: K562, 48 h, read-out: Activity
SW-620 = assay: Growth inhibition of human SW620 cells after 48 hrs by sulforhodamine B assay; type: functional; conditions: SW-620, 48 h
COLO 205 = assay: Growth inhibition of human COLO205 cells assessed as cell growth at 10 uM after 48 hrs by sulforhodamine B assay; type: functional; conditions: COLO 205, 48 h, read-out: Activity
NCI-H322M [9] = assay: Growth inhibition of human NCI-H322M cells after 48 hrs by sulforhodamine B assay; type: functional
U-251 = assay: Growth inhibition of human U251 cells after 48 hrs by sulforhodamine B assay; type: functional; conditions: U-251, 48 h
HCT-15 = assay: Growth inhibition of human HCT15 cells after 48 hrs by sulforhodamine B assay; type: functional; conditions: HCT-15, 48 h
[10] = Growth inhibition of human HCC2998 cells after 48 hrs by sulforhodamine B assay; type: functional; conditions: HCC 2998, 48 h
M14 = assay: Growth inhibition of human M14 cells assessed as cell growth at 10 uM after 48 hrs by sulforhodamine B assay; type: functional; conditions: M14, 48 h, read-out: Activity
[11] = read-out: LC50 (the source's name)

In the case of `O=C(Nc1cccc(-n2cc(-c3ccncc3)c(-c3ccc(Cl)c(O)c3)n2)c1)Nc1ccc(Cl)c(C(F)(F)F)c1`, the growth at 10 µM (MCF7) is reported as -16.6%, the GI50 (KM12) is reported as 1 µM and the TGI (KM12) is reported as 3.51 µM. The CC50 (KM12; [11]) was 17.4 µM, the growth at 10 µM (NCI-H322M [1]) was 24.7% and the growth at 10 µM (OVCAR-3) was -43%. For the same compound, the GI50 (ACHN) was 0.913 µM, the TGI (ACHN) was over 32.5 µM and the CC50 (ACHN; [11]) was over 32.5 µM. It also gave a GI50 (MDA-MB-468) of 0.541 µM, an IC50 (MDA-MB-468) of 0.54 µM and a TGI (MDA-MB-468) of 1.75 µM. For the same compound, the CC50 (MDA-MB-468; [11]) was over 32.5 µM, the growth at 10 µM (HT-29) was -6.5% and the GI50 (UACC-257) was 0.768 µM. For the same compound, the TGI (UACC-257) was 2.1 µM, the CC50 (UACC-257; [11]) was 8.39 µM and the GI50 (HCT-116) was 0.998 µM. For the same compound, the TGI (HCT-116) was 3.94 µM, the CC50 (HCT-116; [11]) was over 32.5 µM and the growth at 10 µM (MDA-MB-231) was -36.4%. The GI50 (OVCAR-8 [2]) was 0.759 µM, the TGI (OVCAR-8 [2]) was 2.28 µM and the CC50 (OVCAR-8 [2]; [11]) was over 32.5 µM. It also gave a growth at 10 µM [3] of -16.9%, a growth at 10 µM (DU-145 [4]) of -17% and a GI50 (786-0) of 1.28 µM. The TGI (786-0) was over 32.5 µM, the CC50 (786-0; [11]) was over 32.5 µM and the growth at 10 µM (SF-539 [5]) was -26.1%. The growth at 10 µM (SK-MEL-28) was -31.5%, the growth at 10 µM (OVCAR-8 [6]) was -41.8% and the GI50 (UACC-62) was 0.627 µM. For the same compound, the LC50 (50% lethal concentration) (UACC-62) was 3.16 µM, the TGI (UACC-62) was 1.45 µM and the GI50 (SF-539 [7]) was 0.782 µM. It also gave an LC50 (concentration killing 50% of cells) (SF-539 [7]) of over 32.5 µM, a TGI (SF-539 [7]) of 2.39 µM and a GI50 (A549) of 0.927 µM. For the same compound, the LC50 (concentration killing 50% of starting cells) (A549) was over 32.5 µM, the TGI (A549) was 5.09 µM and the growth at 10 µM (HOP-92) was -30.7%. For the same compound, the GI50 (SR) was 0.715 µM, the TGI (SR) was 2.52 µM and the CC50 (SR; [11]) was over 32.5 µM. It also gave a GI50 (UO-31) of 0.777 µM, a TGI (UO-31) of 3.01 µM and a CC50 (UO-31; [11]) of over 32.5 µM. It also gave a growth at 10 µM (OVCAR-5) of 23.3%, a growth at 10 µM (SNB-19) of -28.8% and a GI50 (DU-145 [8]) of 1.13 µM. It also gave an LC50 (DU-145 [8]) of 25.1 µM, a TGI (DU-145 [8]) of 4.63 µM and a growth at 10 µM (K562) of -20.8%. For the same compound, the GI50 (SW-620) was 1.15 µM, the TGI (SW-620) was 4.16 µM and the CC50 (SW-620; [11]) was over 32.5 µM. It also gave a growth at 10 µM (COLO 205) of -60.2%, a GI50 (NCI-H322M [9]) of 1.09 µM and a TGI (NCI-H322M [9]) of 4.48 µM. For the same compound, the CC50 (NCI-H322M [9]; [11]) was 24.7 µM, the GI50 (U-251) was 0.548 µM and the LC50 (concentration killing 50% of cells) (U-251) was 2.74 µM. The TGI (U-251) was 1.23 µM, the GI50 (HCT-15) was 0.867 µM and the LC50 (HCT-15) was over 32.5 µM. The TGI (HCT-15) was 13.8 µM, the GI50 [10] was 1.06 µM and the TGI [10] was 4.12 µM. For the same compound, the CC50 [10, 11] was 20.7 µM and the growth at 10 µM (M14) was -25.5%.
